Experimental data as given in ChEMBL document CHEMBL1201862, “PubChem BioAssay data set” (2004).
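Results reflect a 48-hour exposure of cells in 96-well plates to compound at five concentrations. GI50 marks 50% less growth.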 Active and inactive are the calls of the source. No stated cut-off is given here; in the data, active = GI50 up to about 1.1 µM and inactive = higher.

Key:
Assay in all cases: NCI tumour cell line growth inhibition, 48 h
MDA-N = test system: MDA-N
HCT-15 = test system: HCT-15
SK-MEL-5 = test system: SK-MEL-5
HOP-92 = test system: HOP-92
OVCAR-8 = test system: OVCAR-8
SNB-19 = test system: SNB-19
HCC 2998 = test system: HCC 2998
NCI-H226 = test system: NCI-H226
HOP-62 = test system: HOP-62
ACHN = test system: ACHN
BT-549 = test system: BT-549
OVCAR-5 = test system: OVCAR-5
HL-60 = test system: HL-60
SW-620 = test system: SW-620
MOLT-4 = test system: MOLT-4
EKVX = test system: EKVX
OVCAR-4 = test system: OVCAR-4
MCF7 = test system: MCF7
PC-3 = test system: PC-3
SF-539 = test system: SF-539
DU-145 = test system: DU-145
CAKI-1 = test system: CAKI-1
UACC-62 = test system: UACC-62
SF-268 = test system: SF-268
LOX IMVI = test system: LOX IMVI
NCI-H23 = test system: NCI-H23
NCI/ADR-RES = test system: NCI/ADR-RES
SF-295 = test system: SF-295
MDA-MB-435 = test system: MDA-MB-435
HT-29 = test system: HT-29
SK-MEL-2 = test system: SK-MEL-2
CCRF-CEM = test system: CCRF-CEM
M14 = test system: M14
RPMI-8226 = test system: RPMI-8226
A498 = test system: A498
SK-MEL-28 = test system: SK-MEL-28
UO-31 = test system: UO-31
Malme-3M = test system: Malme-3M
786-0 = test system: 786-0
IGROV-1 = test system: IGROV-1
SK-OV-3 = test system: SK-OV-3
HCT-116 = test system: HCT-116
COLO 205 = test system: COLO 205
TK-10 = test system: TK-10
A549 = test system: A549
U-251 = test system: U-251
MDA-MB-231 = test system: MDA-MB-231
UACC-257 = test system: UACC-257
SNB-75 = test system: SNB-75
RXF 393 = test system: RXF 393
T47D = test system: T47D
OVCAR-3 = test system: OVCAR-3
Hs-578T = test system: Hs-578T
SN12C = test system: SN12C
KM12 = test system: KM12
K562 = test system: K562
SR = test system: SR
NCI-H460 = test system: NCI-H460

Measured: GI50

Cn1cnc2c(sc3nc4ccccc4n32)c1=N
> 100 µM: HCT-15
inactive: MDA-N > 100 µM | SK-MEL-5 > 100 µM | HOP-92 > 100 µM | OVCAR-8 41.5 µM | SNB-19 > 100 µM | HCC 2998 17.6 µM | NCI-H226 > 100 µM | HOP-62 > 100 µM | ACHN > 100 µM | BT-549 > 100 µM | OVCAR-5 > 100 µM | HL-60 > 100 µM | SW-620 > 100 µM | MOLT-4 > 100 µM | EKVX 52.2 µM | OVCAR-4 > 100 µM | MCF7 > 100 µM | PC-3 > 100 µM | SF-539 > 100 µM | DU-145 > 100 µM | CAKI-1 > 100 µM | UACC-62 > 100 µM | SF-268 > 100 µM | LOX IMVI > 100 µM | NCI-H23 > 100 µM | NCI/ADR-RES > 100 µM | SF-295 68.1 µM | MDA-MB-435 > 100 µM | HT-29 > 100 µM | SK-MEL-2 > 100 µM | CCRF-CEM > 100 µM | M14 > 100 µM | RPMI-8226 > 100 µM | A498 > 100 µM | SK-MEL-28 > 100 µM | UO-31 > 100 µM | Malme-3M > 100 µM | 786-0 > 100 µM | IGROV-1 22.6 µM | SK-OV-3 > 100 µM | HCT-116 > 100 µM | COLO 205 > 100 µM | TK-10 > 100 µM | A549 > 100 µM | U-251 > 100 µM | MDA-MB-231 > 100 µM | UACC-257 > 100 µM | SNB-75 11.2 µM | RXF 393 > 100 µM | T47D > 100 µM | OVCAR-3 > 100 µM | Hs-578T 42.7 µM

COc1nncc2[nH]c(-c3ccccc3)cc12
inactive: MDA-N 62.4 µM | SK-MEL-5 67.8 µM | SN12C 40.9 µM | HOP-92 > 100 µM | OVCAR-8 92.5 µM | SNB-19 > 100 µM | HCC 2998 > 100 µM | NCI-H226 80.9 µM | HOP-62 > 100 µM | ACHN 54 µM | BT-549 40.5 µM | OVCAR-5 > 100 µM | HL-60 30.9 µM | SW-620 > 100 µM | EKVX 29.4 µM | OVCAR-4 93.5 µM | MCF7 49.7 µM | PC-3 44.7 µM | SF-539 > 100 µM | DU-145 90.4 µM | CAKI-1 96.8 µM | UACC-62 42.3 µM | SF-268 65.8 µM | LOX IMVI 65 µM | NCI-H23 > 100 µM | NCI/ADR-RES 76.2 µM | SF-295 82.4 µM | KM12 > 100 µM | K562 56.6 µM | MDA-MB-435 73.3 µM | HT-29 > 100 µM | SK-MEL-2 33.9 µM | CCRF-CEM 44.9 µM | M14 86.7 µM | RPMI-8226 46.9 µM | A498 22.3 µM | UO-31 51.2 µM | Malme-3M > 100 µM | 786-0 70 µM | IGROV-1 > 100 µM | SK-OV-3 > 100 µM | HCT-116 50.8 µM | COLO 205 > 100 µM | SR 37.5 µM | TK-10 53.1 µM | A549 65.3 µM | U-251 49 µM | MDA-MB-231 49.8 µM | UACC-257 71.1 µM | SNB-75 58.1 µM | RXF 393 > 100 µM | T47D 40.9 µM | NCI-H460 64.6 µM | OVCAR-3 83.2 µM | Hs-578T 44 µM
active: MOLT-4 0.0652 µM
53 µM: HCT-15
